Patent US9616037B2, “Aryl-phenyl-sulfonamido-cycloalkyl compounds and their use” (PIMCO 2664 Limited, priority 2008, dated 2017)

Tests used:
[1] = In vivo pharmacokinetics study, oral and intravenous dosing; conditions: rat, 1 mg/kg; for half-life / bioavailability: male, Sprague-Dawley, plasma; for bioavailability: oral
Procedure: Absorption and metabolic stability were studied using an in vivo pharmacokinetics assay. Drug levels were assessed using ultra-performance LC/TOF-MS.
Three male Sprague-Dawley rats, 200-300 g, were dosed per route. Test compound was administered either orally or intravenously (dose level of 1 mg/kg body weight). Test compound was formulated in 50:50 tetraethylene glycol:PBS for both routes. Animals were given free access to food throughout the study. On the day prior to dosing, the carotid artery was cannulated for sample collection and for the intravenous study the jugular vein was cannulated to enable dosing.
Blood samples were taken from the carotid artery at the following time points and placed in heparinised tubes: • Oral dosing—predose, 0.25, 0.5, 1, 2, 4, 8 and 24 hours post dose. • IV dosing—predose, 0.08, 0.25, 0.5, 1, 2, 4 and 8 hours post dose.
Blood samples were centrifuged to obtain plasma, which was transferred to a separate container and frozen at −20° C.
The supernatants were collected for analysis. The standard samples were prepared similarly, after spiking blank rat plasma samples to study compound concentrations at 1, 2, 5, 10, 20, 50, 100, 200, 500 and 1000 ng/mL. In addition, extra samples were prepared from 0-1 hour i.v. samples by diluting 1/20 with 50% aqueous acetonitrile to avoid exceeding the linear range of the analytical method.
A Waters Acquity liquid ultra-performance chromatographic system (Waters Corp., Milford, Mass., USA) with autosampler, vacuum degasser and column oven was used. The analytical column used for all compounds was a Waters BEH C18, (2.1×50 mm, 1.7 μm, Waters Corp, Milford, Mass., USA) together with a 0.2 μm on-line filter before the column. The eluents were 0.1% acetic acid (A, pH 3.2) and methanol (B). Gradient elution from 5% to 60% B in two minutes was employed, followed by one minute gradient to 90% B and column equilibration. The flow rate was 0.5 mL/min and the column oven temperature was 35° C. The flow was directed to the MS via Water Acquity photo-diode-array (PDA) detector. LC/TOF-MS data were recorded with a Micromass LCT Premier XE time-of-flight (TOF) mass spectrometer (Micromass Ltd., Manchester, England) equipped with a LockSpray electrospray ionization source. A positive ionization mode of electrospray was used for all compounds. The mass range of m/z 100-900 was acquired. The W-option of the reflector was used, and the DRE (dynamic range enhancement) option was set to on. The mass spectrometer and HPLC system were operated under Micromass MassLynx 4.1 software. […] Masslynx 4.1 software was used for controlling the instrumentation and for data processing.
The pharmacokinetic parameters for the test compounds were calculated by WinNonlin Pro (Pharsight Corp, CA) using standard noncompartmental methods. The elimination phase half-life (t1/2) was calculated by least-squares regression analysis of the terminal linear part of the log concentration—time curve. The area under the plasma concentration—time curve (AUC) was determined by use of the linear trapezoidal rule up to the last measurable concentration and thereafter by extrapolation of the terminal elimination phase to infinity.

[2] = Human liver microsomal stability assay; format: in vitro ADME; conditions: both sexes, pH 7.4; pooled human liver microsomes 0.5 mg/mL, 3 μM compound, NADPH, 45 minute incubation
Procedure: Initial screening of candidate compounds was performed using in vitro assays to determine potency, metabolic stability and solubility in biologically relevant fluids. Potency was assessed using a viability assay based on the survival of the J774 macrophage cell line. […] Like osteoclasts, J774 macrophages are dependent on continued NFκB activation for survival, thereby providing a valuable screen for compounds with anti-inflammatory activity. Metabolic stability was measured by determining the rate of disappearance of compound in the presence of human liver microsomal preparations, as quantified by LC-MS/MS. Solubility was measured by equilibration of the compound in fasted state simulated intestinal fluid (FaSSIF) and quantified by HPLC.
Metabolic stability of APSAC derivatives was measured by determination of the rate of compound disappearance when incubated in the presence of human liver microsomes. Liver microsomes are prepared from the endoplasmic reticulum of hepatocytes and are the primary source of the most important enzymes (cytochrome P450) involved in drug metabolism. Study of drug stability in the presence of liver microsomes is accepted as a valuable model permitting rapid prediction of in vivo drug stability.
Human liver microsomes were obtained from a commercial source. Test compounds (3 μM) were incubated with pooled liver microsomes (male and female). Samples were incubated for a 45 minute period and removed at 5 time points and test compounds were analysed by LC-MS/MS.
The final incubation volume was 25 μL. A control incubation was included for each compound tested, where 0.1 M phosphate buffer pH 7.4 was added instead of NADPH. The control compounds testosterone and 7-hydroxycoumarin were included in each experiment and all incubations were performed singularly for each compound.
Each compound was incubated for 0, 5, 15, 30, and 45 minutes. The control (minus NADPH) was incubated for 45 minutes only. […] The incubation plates were centrifuged at 2500 rpm for 20 minutes at 4° C. to precipitate the protein.
Following protein precipitation, the sample supernatants were combined in cassettes of up to 4 compounds and analysed using standard LC-MS/MS conditions.
From a plot of the natural logarithm of the peak area ratio (i.e., the ratio of compound peak area:internal standard peak area) against time, the gradient of the line was determined. Subsequently, half-life and intrinsic clearance were calculated using the equations below: Eliminated rate constant (k)=(−gradient). […] Pharmacokinetics Studies

For `O=S(=O)(N[C@H]1CC[C@@H](CO)C1)c1ccc(-c2ccc(F)cc2F)cc1` [ABD773, 2′,4′-Difluoro-N-((1 S,3R)-3-(hydroxymethyl)cyclopentyl)biphenyl-4-sulfonamide], the half-life ([1]; iv) was 48.6 min, the bioavailability [1] was 13% and the half-life ([1]; po) was 190 min. For the same molecule, the AUC ([1]; i.v.) was 11900 ng/mL/min, the AUC ([1]; p.o.) was 1500 ng/mL/min and the half-life at 3 µM [2] was 54 min.
Molecule `O=S(=O)(N[C@H]1CC[C@@H](CO)CC1)c1ccc(-c2ccc(F)cc2F)cc1` [ABD781, 2′,4′-Difluoro-N-(cis-4-(hydroxymethyl)cyclohexyl)biphenyl-4-sulfonamide] has a half-life ([1]; iv) of 52.2 min, a bioavailability [1] of 43% and a half-life ([1]; po) of 197 min. For the same molecule, the AUC ([1]; i.v.) was 22400 ng/mL/min, the AUC ([1]; p.o.) was 9600 ng/mL/min and the half-life at 3 µM [2] was 41 min.
